Laboratory results published in publication PMC9551036, “A selective and orally bioavailable VHL-recruiting PROTAC achieves SMARCA2 degradation in vivo” (Nature Communications, 2022).
Values joined by “and” are separate entries in the source; they are usually repeats but may differ in a detail not shown here. Identical values can stand only once. Like-named read-outs stand apart in the source and are kept apart here.

Tests used:
[1] = Pharmacokinetic analyses in mouse; assay type: in vivo; details: mouse, plasma; for AUC: read-out: AUC; for AUC(0-inf): read-out: AUCinf
Method: Compound concentrations in plasma aliquots were measured by quantitative HPLC-MS/MS using an internal standard. Calibration and quality control samples were prepared using blank plasma from untreated animals. Samples were precipitated with acetonitrile and injected into a HPLC system (Agilent 1200). Separation was performed by gradients of 5 mmol/L ammonium acetate pH 4.0 and acetonitrile with 0.1% formic acid on a 2.1 mm by 50 mm XBridge BEH C18 reversed-phase column with 2.5 µm particles (Waters). The HPLC was interfaced by ESI operated in positive ionisation mode to a triple quadrupole mass spectrometer (5000 or 6500+ Triple Quad System, SCIEX) operated in multiple reaction monitoring mode. Transitions were 532.4 to 432.8 m/z for BI01810284, 525.6 to 425.7 m/z for BI01802983 and 1021.6 to 624.2 m/z for BI01580883. Chromatograms were analyzed with Analyst (SCIEX) and pharmacokinetic parameters were calculated by non-compartmental analysis using BI-proprietary software.

SMARCA2 = SMARCA2 (Homo sapiens, UniProt P51531); assay: SMARCA2 IHC in NCI-H1568 xenograft tumours; assay type: in vivo, mouse; parameters: from tissue; host or cells: subcutaneous NCI-H1568 or A549 xenograft tumours in BomTac:NMRI-Foxn1nu mice; details: individual tumours; for SMARCA2 (OD, normalised): background OD 0.03518 subtracted
Method: To establish subcutaneous tumours, mice were injected with 5 × 10^6 NCI-H1568 in PBS with 5% FCS or with 1 × 10^7 A549 cells in PBS with 5% FCS. Tumour diameters were measured with a caliper three times a week. The volume of each tumour (in mm^3) was calculated according to the formula [tumour volume = length × diameter^2 × π/6]. To monitor side effects of treatment, mice were inspected daily for abnormalities and body weight was determined daily after the start of treatment. Animals were sacrificed when the tumours reached a size of 1500 mm^3. Mice were randomised into treatment groups when the average tumour size reached ~210–220 mm^3. Group sizes were calculated individually for each tumour model based on tumour growth during model establishment experiments. A power analysis was performed using a sample size calculator (https://www.stat.ubc.ca/~rollin/stats/ssize/n2.html). For both models used in the study, 10 mice per group were used for each experiment. All administrations were dosed with 10 ml/kg (s.c. and oral). Control mice were dosed subcutaneously with 10% HP-β-CD in 50% Ringer solution and orally with 15% HP-β-CD, that means the control mouse treatment was corresponding to the solvent of the compounds. Compound 6 was dosed subcutaneously either in a d1-4 q3d, d6-8 q2d, d11-13 q2d treatment (Treatment 1) or a q3 or 4d treatment (Treatment 2).
Xenograft samples were fixed in 10% formaldehyde for 24 h and later moved to ethanol and embedded in paraffin. 2 µm-thick sections were cut using a microtome, then placed on glass slides ([…], silan printer slides PR-S:001), and subsequently dewaxed. SMARCA2 immunohistochemistry was carried out on the Leica BOND RX platform (Leica Biosystems) according to manufacturer’s instructions using a human-specific SMARCA2 antibody (Cell Signalling #11966 clone D9E8B RRID:AB_2797783 1:400) where the tissue underwent a heat-induced epitope retrieval for 20 min. After staining, the slides were cover-slipped with Shandon Consul-Mount glass covers, scanned using a slide scanner (3D HISTECH Ltd.). All slides were reviewed and evaluated for quality by a board-certified MD specialist in Anatomic Pathology (PC). Imaging analysis was performed using the digital pathology platform HALO (Indica Labs). A tissue-classifying algorithm was trained to selectively recognise viable tumour tissue against stroma, necrosis, and skin. The tissue classification output for each scan was reviewed and manually edited as necessary. A cell detection and scoring algorithm was trained to measure DAB optical density (OD) in the nuclei of tumour cells. A positivity threshold for DAB OD was determined by normalisation with respect to the DAB OD as calculated from bona fide negative tissue (e.g. murine stroma as background). The average, background-normalised DAB OD of tumour cell nuclei was used to quantitate SMARCA2 expression in each xenograft sample.

[2] = iv, 5 mg/kg, 5 mg/kg i.v., individual animals
[3] = iv, 5 mg/kg, 5 mg/kg i.v., NCA, individual animals
[4] = po, 30 mg/kg, 30 mg/kg p.o., individual animals
[5] = po, 30 mg/kg, 30 mg/kg p.o., NCA, individual animals

Sequence of SMARCA2 (P51531 whole entry): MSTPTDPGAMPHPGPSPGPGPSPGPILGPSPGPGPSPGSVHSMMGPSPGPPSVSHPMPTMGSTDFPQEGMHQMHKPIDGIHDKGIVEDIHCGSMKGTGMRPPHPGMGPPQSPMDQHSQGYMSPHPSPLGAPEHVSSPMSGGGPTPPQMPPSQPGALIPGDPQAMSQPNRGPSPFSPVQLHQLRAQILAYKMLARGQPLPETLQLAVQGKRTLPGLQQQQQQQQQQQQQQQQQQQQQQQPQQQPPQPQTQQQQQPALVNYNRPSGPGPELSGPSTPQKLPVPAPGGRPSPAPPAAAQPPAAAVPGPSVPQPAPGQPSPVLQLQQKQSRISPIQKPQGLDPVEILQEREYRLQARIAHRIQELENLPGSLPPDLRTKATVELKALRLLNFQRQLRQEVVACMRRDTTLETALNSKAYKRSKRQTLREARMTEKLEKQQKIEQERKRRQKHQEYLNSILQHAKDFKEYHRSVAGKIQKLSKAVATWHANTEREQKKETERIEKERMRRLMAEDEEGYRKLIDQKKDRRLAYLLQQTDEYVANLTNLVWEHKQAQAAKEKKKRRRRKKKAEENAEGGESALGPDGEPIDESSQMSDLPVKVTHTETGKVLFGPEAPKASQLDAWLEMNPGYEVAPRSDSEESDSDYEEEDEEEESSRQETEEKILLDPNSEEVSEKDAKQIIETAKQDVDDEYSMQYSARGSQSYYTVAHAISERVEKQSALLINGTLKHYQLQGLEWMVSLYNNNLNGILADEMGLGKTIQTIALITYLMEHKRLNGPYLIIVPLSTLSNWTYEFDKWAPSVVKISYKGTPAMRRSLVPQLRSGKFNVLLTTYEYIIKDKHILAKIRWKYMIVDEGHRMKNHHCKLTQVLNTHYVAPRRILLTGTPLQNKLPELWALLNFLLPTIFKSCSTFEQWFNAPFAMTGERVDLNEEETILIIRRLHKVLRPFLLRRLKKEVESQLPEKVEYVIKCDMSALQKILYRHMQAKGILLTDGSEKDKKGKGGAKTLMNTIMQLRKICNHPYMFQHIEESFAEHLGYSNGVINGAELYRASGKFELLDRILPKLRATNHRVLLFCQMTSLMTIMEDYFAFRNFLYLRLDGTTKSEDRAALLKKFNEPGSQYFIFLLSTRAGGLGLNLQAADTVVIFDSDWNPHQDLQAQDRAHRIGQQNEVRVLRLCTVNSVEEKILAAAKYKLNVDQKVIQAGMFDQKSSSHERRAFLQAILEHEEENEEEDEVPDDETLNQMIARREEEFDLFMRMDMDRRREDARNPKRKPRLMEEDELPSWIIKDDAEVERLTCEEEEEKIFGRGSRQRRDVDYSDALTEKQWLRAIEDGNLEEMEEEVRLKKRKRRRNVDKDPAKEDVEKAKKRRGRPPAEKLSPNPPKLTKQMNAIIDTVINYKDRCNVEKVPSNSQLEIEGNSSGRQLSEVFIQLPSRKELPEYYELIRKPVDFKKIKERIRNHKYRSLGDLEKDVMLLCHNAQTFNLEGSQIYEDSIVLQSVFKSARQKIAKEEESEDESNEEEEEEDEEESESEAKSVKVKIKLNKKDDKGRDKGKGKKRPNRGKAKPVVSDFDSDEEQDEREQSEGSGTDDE

Cc1ncsc1-c1ccc(C(CCC(C)CCN2CCC(c3ccc4c(c3)n(C3CCCC3)c3nc(=O)c5c(Br)cccc5n43)CC2)NC(=O)C2CC(O)CN2C(=O)C(NC(=O)C2(F)CC2)C(C)(C)C)cc1 (centres unmarked) [ACBI2]
concentration at 6 h ([1]; intravenous, 5 mg/kg, 5 mg/kg i.v., time 6 h, individual animals, read-out: Concentration): 1620 nM
concentration at 24 h ([1]; intravenous, 5 mg/kg, 5 mg/kg i.v., time 24 h, individual animals, read-out: Concentration): 85.5 nM
AUC [1, 2]: 34.2 µM·h
AUC(0-inf) [1, 2]: 34.7 µM·h
concentration at 0.25 h ([1]; iv, 5 mg/kg, 5 mg/kg i.v., 0.25 h, individual animals, read-out: Plasma concentration): 6800 nM
concentration at 1 h ([1]; iv, 5 mg/kg, 5 mg/kg i.v., 1 h, individual animals, read-out: Plasma concentration): 5130 nM
concentration at 6 h ([1]; iv, 5 mg/kg, 5 mg/kg i.v., 6 h, individual animals, read-out: Plasma concentration): 1220 nM
concentration at 24 h ([1]; iv, 5 mg/kg, 5 mg/kg i.v., 24 h, individual animals, read-out: Plasma concentration): 94.9 nM
AUC [1, 3]: 34.2 µM·h
AUC(0-inf) [1, 3]: 34.7 µM·h
clearance ([1]; iv, 5 mg/kg, 5 mg/kg i.v., NCA, individual animals, read-out: CL): 2.25 mL/min/kg
Vd ([1]; iv, 5 mg/kg, 5 mg/kg i.v., NCA, individual animals, read-out: Vss): 0.536 L/kg
clearance ([1]; iv, 5 mg/kg, 5 mg/kg i.v., read-out: clearance): 2.1 mL/min/kg
concentration at 0.333 h ([1]; oral, 30 mg/kg, 30 mg/kg p.o., time 0.333 h, individual animals, read-out: Concentration): 898 nM
concentration at 1 h ([1]; oral, 30 mg/kg, 30 mg/kg p.o., time 1 h, individual animals, read-out: Concentration): 4310 nM
concentration at 2 h ([1]; oral, 30 mg/kg, 30 mg/kg p.o., time 2 h, individual animals, read-out: Concentration): 4290 nM
concentration at 6 h ([1]; oral, 30 mg/kg, 30 mg/kg p.o., time 6 h, individual animals, read-out: Concentration): 2750 nM
concentration at 24 h ([1]; oral, 30 mg/kg, 30 mg/kg p.o., time 24 h, individual animals, read-out: Concentration): 265 nM
bioavailability ([1]; oral, 30 mg/kg, 30 mg/kg p.o. vs 5 mg/kg i.v., read-out: F% p.o. (oral bioavailability)): 22%
bioavailability ([1]; po, 30 mg/kg, 30 mg/kg p.o. vs 5 mg/kg i.v., individual animals, read-out: F): 21.5%
AUC [1, 4]: 47.5 µM·h
AUC(0-inf) [1, 4]: 49.5 µM·h
concentration at 0.333 h ([1]; po, 30 mg/kg, 30 mg/kg p.o., 0.333 h, individual animals, read-out: Plasma concentration): 898 nM
concentration at 1 h ([1]; po, 30 mg/kg, 30 mg/kg p.o., 1 h, individual animals, read-out: Plasma concentration): 4310 nM
concentration at 2 h ([1]; po, 30 mg/kg, 30 mg/kg p.o., 2 h, individual animals, read-out: Plasma concentration): 4290 nM
concentration at 6 h ([1]; po, 30 mg/kg, 30 mg/kg p.o., 6 h, individual animals, read-out: Plasma concentration): 2750 nM
concentration at 24 h ([1]; po, 30 mg/kg, 30 mg/kg p.o., 24 h, individual animals, read-out: Plasma concentration): 265 nM
AUC [1, 5]: 47.5 µM·h
AUC(0-inf) [1, 5]: 49.5 µM·h
bioavailability ([1]; po, 30 mg/kg, 30 mg/kg p.o., NCA, individual animals, read-out: F): 21.5%
SMARCA2 (OD, normalised) (SMARCA2; 5 mg/kg, 48h): 0.2432 and 0.2157 and 0.2065 and 0.129 and 0.1815
SMARCA2 Nuclear OD (SMARCA2; 5 mg/kg, 48h): 0.2784 and 0.2509 and 0.2416 and 0.1642 and 0.2166
SMARCA2 (OD, normalised) (SMARCA2; 20 mg/kg, 24h): 0.05875 and 0.05583 and 0.06456 and 0.06581
SMARCA2 Nuclear OD (SMARCA2; 20 mg/kg, 24h): 0.09393 and 0.09101 and 0.09973 and 0.101
SMARCA2 (OD, normalised) (SMARCA2; 20 mg/kg, 48h): 0.06607 and 0.09312 and 0.06031 and 0.01981
SMARCA2 Nuclear OD (SMARCA2; 20 mg/kg, 48h): 0.1013 and 0.1283 and 0.09549 and 0.05499
SMARCA2 (OD, normalised) (SMARCA2; 100 mg/kg, 48h): 0.01021 and 0.00729 and 0.00935 and 0.01389 and 0.01189
SMARCA2 Nuclear OD (SMARCA2; 100 mg/kg, 48h): 0.04539 and 0.04246 and 0.04453 and 0.04906 and 0.04706
